Drawing on PubChem BioAssay (NCI), this text covers GI50 and TGI for five compounds.

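1) Cells in 96-well plates. 2) Compound, 48 h, 5 concentrations. 3) Linear interpolation between surrounding doses. 4) Unreached endpoint = highest concentration. GI50 marks 50% less growth. TGI is the concentration that stops growth completely.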 Some results are limits rather than exact numbers.

Common to all, as to test: NCI-60 cell line screen, 48 h
The test system of test [1] is ACHN renal.
For test [2], the system named is DU-145 prostate.
The test system of test [3] is HCT-116 colon.
Test [4] has as its system HS 578T breast.
For test [5], the system named is LOX IMVI melanoma.
The test system of test [6] is MOLT-4 leukemia.
Test [7] has as its system NCI/ADR-RES ovarian.
The test system of test [8] is SF-295 CNS.
Test [9] deals with SNB-75 CNS.
The test system of test [10] is U251 CNS.

As to `Cc1cc(I)cc(CNCCN(C)C)c1O`, the GI50 in test [1] was above 79.6 µM; in test [2], 98.8 µM; in test [3] it was above 68 µM; in test [4] it was 49.5 µM; in [5] it was 44.3 µM; in test [6] it was 44.6 µM. In addition, the GI50 was above 84.5 µM in test [7], 42.6 µM in test [8], 49.4 µM in test [9] and 73.5 µM in test [10]. Besides, the TGI in [1], in test [2], in [3], in [4], in test [5] and in test [6] was above 100 µM throughout. Also, the TGI is above 100 µM in [7], above 88.1 µM in test [8], above 100 µM in test [9] and above 100 µM in test [10].

Take `COc1cc2cc(NCc3cccc(Cl)c3)nc(C)c2cc1OC`: the GI50 in test [1] was 2.46 µM; in [2], 5.41 µM; in test [3], 0.532 µM; in test [4], 4.87 µM; in test [5], 0.442 µM; in [6], 3.21 µM. Besides, the GI50 in test [7] is 2.02 µM; in [8], 0.513 µM; in [9], 2.83 µM; in test [10] it was 2.4 µM. The TGI in test [1] was found to be 23.1 µM; in test [2], 20.9 µM; in [3], 9.63 µM; in [4], 56.7 µM; in [5] it was 4.36 µM; in test [6], 30.4 µM. In addition, the TGI in test [7] stood at 22.3 µM; in [8] it was 16.8 µM; in test [9] it was 19.4 µM; in test [10] it was 16 µM.

For the compound `N#CC1=C(N)Oc2c(sc3c(Br)cccc23)C1c1ccc([N+](=O)[O-])cc1` (stereo not given), the GI50 in test [1] is 0.12 µM; in test [2] it was 0.14 µM; in test [3], 0.0799 µM; in [4], 0.0774 µM; in test [5], 0.127 µM; in [6] it was 0.223 µM. Moreover, the GI50 is 0.0398 µM in test [7], 0.0417 µM in test [8], 0.0595 µM in test [9] and 0.151 µM in test [10]. For the same compound, the TGI turned out to be 13 µM in test [1]; 9.26 µM in test [2]; 11 µM in [3]; 16.4 µM in test [4]; 4.31 µM in test [5]; 6.07 µM in test [6]. Moreover, the TGI in test [7] was 8.37 µM; in test [8], 11.1 µM; in test [9], 8.41 µM; in [10], 11.8 µM.

On to `COc1cc(/C=C/C(=O)c2cccc(-n3cc(-c4ccccc4)[nH]c3=O)c2)cc(OC)c1OC`, for which the GI50 in test [1] was 1.6 µM; in test [2], 2.16 µM; in [3], 0.332 µM; in test [4] it was 3.41 µM; in [5], 0.489 µM; in test [6] it was 1.8 µM. For the same compound, the GI50 was 1.09 µM in test [7], 1.9 µM in test [8], 4.47 µM in test [9] and 0.63 µM in [10]. Further, the TGI in test [1] is 3.21 µM; in [2], 7.85 µM; in test [3], 1.2 µM; in test [4], 27.1 µM; in test [5], 1.67 µM; in test [6] it was above 100 µM. Also, the TGI in test [7] is 4.58 µM; in [8] it was 4.41 µM; in [9] it was 16.8 µM; in [10], 1.94 µM.

`CCC(=C(c1ccc(OCCN2CCCCC2)cc1)c1ccc(OCCN2CCCCC2)cc1)c1ccc(Cl)cc1`: the GI50 is 7.12 µM in test [1]; above 16.7 µM in [2]; 1.56 µM in [3]; 4.23 µM in test [4]; 2.31 µM in [5]; 2.77 µM in [6]. The GI50 in test [7] was above 16.7 µM; in [8], 6.53 µM; in test [9], above 16.7 µM; in test [10], 3.42 µM. Also, the TGI in test [1] was above 16.7 µM; in test [2], above 16.7 µM; in test [3], above 16.7 µM; in test [4], above 16.7 µM; in test [5], 4.84 µM; in test [6] it was above 16.7 µM. For the same compound, the TGI in test [7], in test [8], in test [9] and in [10] was above 16.7 µM in each case.
